Measured values from patent publication EP0377642B1, “HERBICIDES FOR WEED CONTROL IN RICE” (E.I. DU PONT DE NEMOURS AND COMPANY, priority 1987, dated 1989).

Assays:
Assay type in all cases: in vivo
[1] = test system: Ludwigia linifolia; experiment: Herbicidal efficacy with Bensulfuron methyl and 2,4-D in Thailand (Table 19); conditions: 13 days after treatment
Outline: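 Hand-sprayer application, field; rice crop transplanted or direct seeded; test herbicide alone or in mixtures; locations across Southeast Asia and US.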

[2] = test system: Commelina communis; experiment: Late-post application in Beaumont, Texas, with 0.25% AG-98 (Table 9); conditions: 70 days after seeding
Description: (§1) Methyl 2-[[[[(4-methoxy-6-methyl-1,3,5-triazin-2-yl)amino]carbonyl]amino]sulfonyl]benzoate (Compound 1) and mixtures thereof with other compounds were applied as a spray (using a hand sprayer) to rice (either transplanted or direct seeded) in several rice growing areas in Southeast Asia and in the U.S. Tables 1-28 contain the results of these tests and clearly exemplify the utility of this invention. The details of each application are included in the appropriate table. [drawing 2]

[3] = test system: Annual sedge (?); experiment: as above; conditions: 70 days after seeding
Description: as §1

[4] = test system: Sesbania exaltata; experiment: as above; conditions: 70 days after seeding
Description: as §1

[5] = test system: Eclipta alba; experiment: as above; conditions: 70 days after seeding
Description: as §1

[6] = test system: rice; experiment: as above; conditions: 70 days after seeding
Description: as §1

[7] = test system: Aeschynomene indica; experiment: as above; conditions: 70 days after seeding
Description: as §1

[8] = test system: Caperonia castaniifolia; experiment: as above; conditions: 70 days after seeding
Description: as §1

[9] = test system: Sphenoclea zeylanica; experiment: Herbicidal efficacy alone and with 2,4-D in Malaysia, applied 30 days after seeding (Table 8); conditions: 22 days after treatment
Description: as §1

[10] = test system: Monochoria vaginalis; experiment: as above; conditions: 22 days after treatment
Description: as §1

[11] = test system: Cyperus difformis; experiment: as above; conditions: 22 days after treatment
Description: as §1

[12] = test system: FIMBRISTYLIS MILIACEA; experiment: as above; conditions: 22 days after treatment
Description: as §1

[13] = test system: Scirpus grossus; experiment: as above; conditions: 22 days after treatment
Description: as §1

[14] = test system: Marsilea crenata; experiment: as above; conditions: 22 days after treatment
Description: as §1

[15] = test system: PS; experiment: Herbicidal efficacy in relation to application timing in Indonesia (Table 5)
Description: as §1

COC(=O)c1ccccc1CS(=O)(=O)NC(=O)Nc1nc(OC)cc(OC)n1 [Bensulfuron methyl, methyl 2-[[[[[(4,6-dimethoxy-2-pyrimidinyl)amino]carbonyl]amino]sulfonyl]methyl]benzoate]
% CONTROL OR INJURY LL ([1]; 10 GAI/HA): 100%
% CONTROL OR INJURY LL ([1]; 15 GAI/HA): 100%
% CONTROL OR INJURY LL ([1]; 20 GAI/HA): 100%

COC(=O)c1ccccc1S(=O)(=O)NC(=O)Nc1nc(C)nc(OC)n1 [Compound 1, Methyl 2-[[[[(4-methoxy-6-methyl-1,3,5-triazin-2-yl)amino]carbonyl]amino]sulfonyl]benzoate]
% INJURY OR CONTROL COM ([2]; 3 G/HA): 13%
% INJURY OR CONTROL COM ([2]; 6 G/HA): 24%
% INJURY OR CONTROL COM ([2]; 12 G/HA): 23%
% INJURY OR CONTROL SEDGE ([3]; 3 G/HA): 43%
% INJURY OR CONTROL SEDGE ([3]; 6 G/HA): 56%
% INJURY OR CONTROL SEDGE ([3]; 12 G/HA): 56%
% INJURY OR CONTROL SE ([4]; 3 G/HA): 68%
% INJURY OR CONTROL SE ([4]; 6 G/HA): 62%
% INJURY OR CONTROL SE ([4]; 12 G/HA): 46%
% INJURY OR CONTROL EA ([5]; 3 G/HA): 13%
% INJURY OR CONTROL EA ([5]; 6 G/HA): 23%
% INJURY OR CONTROL EA ([5]; 12 G/HA): 15%
% INJURY OR CONTROL RICE ([6]; 3 G/HA): 3%
% INJURY OR CONTROL RICE ([6]; 6 G/HA): 5%
% INJURY OR CONTROL RICE ([6]; 12 G/HA): 6%
% INJURY OR CONTROL AI ([7]; 3 G/HA): 68%
% INJURY OR CONTROL AI ([7]; 6 G/HA): 62%
% INJURY OR CONTROL AI ([7]; 12 G/HA): 46%
% INJURY OR CONTROL CC ([8]; 3 G/HA): 11%
% INJURY OR CONTROL CC ([8]; 6 G/HA): 19%
% INJURY OR CONTROL CC ([8]; 12 G/HA): 18%
% CONTROL SZ ([9]; 1 GAI/HA): 0%
% CONTROL SZ ([9]; 2 GAI/HA): 100%
% CONTROL SZ ([9]; 3 GAI/HA): 100%
% CONTROL SZ ([9]; 4 GAI/HA): 100%
% CONTROL SZ ([9]; 5 GAI/HA): 100%
% CONTROL MV ([10]; 1 GAI/HA): 95%
% CONTROL MV ([10]; 2 GAI/HA): 95%
% CONTROL MV ([10]; 3 GAI/HA): 100%
% CONTROL MV ([10]; 4 GAI/HA): 100%
% CONTROL MV ([10]; 5 GAI/HA): 100%
% CONTROL CD ([11]; 1 GAI/HA): 0%
% CONTROL CD ([11]; 2 GAI/HA): 100%
% CONTROL CD ([11]; 3 GAI/HA): 95%
% CONTROL CD ([11]; 4 GAI/HA): 100%
% CONTROL CD ([11]; 5 GAI/HA): 100%
% CONTROL FM ([12]; 1 GAI/HA): 0%
% CONTROL FM ([12]; 2 GAI/HA): 100%
% CONTROL FM ([12]; 3 GAI/HA): 50%
% CONTROL FM ([12]; 4 GAI/HA): 50%
% CONTROL FM ([12]; 5 GAI/HA): 20%
% CONTROL SG ([13]; 1 GAI/HA): 80%
% CONTROL SG ([13]; 2 GAI/HA): 100%
% CONTROL SG ([13]; 3 GAI/HA): 95%
% CONTROL SG ([13]; 4 GAI/HA): 95%
% CONTROL SG ([13]; 5 GAI/HA): 100%
% CONTROL MC ([14]; 1 GAI/HA): 20%
% CONTROL MC ([14]; 2 GAI/HA): 95%
% CONTROL MC ([14]; 3 GAI/HA): 100%
% CONTROL MC ([14]; 4 GAI/HA): 95%
% CONTROL MC ([14]; 5 GAI/HA): 100%
% CONTROL PS ([15]; 3 WAT, 2 GAI/HA, evaluation 1): 0%
% CONTROL PS ([15]; 3 WAT, 2 GAI/HA, evaluation 2): 0%
% CONTROL PS ([15]; 3 WAT, 2 GAI/HA, evaluation 3): 0%
% CONTROL PS ([15]; 3 WAT, 3 GAI/HA, evaluation 1): 0%
% CONTROL PS ([15]; 3 WAT, 3 GAI/HA, evaluation 2): 0%
% CONTROL PS ([15]; 3 WAT, 3 GAI/HA, evaluation 3): 0%
% CONTROL PS ([15]; 3 WAT, 4 GAI/HA, evaluation 1): 0%
% CONTROL PS ([15]; 3 WAT, 4 GAI/HA, evaluation 2): 0%
% CONTROL PS ([15]; 3 WAT, 4 GAI/HA, evaluation 3): 0%
% CONTROL PS ([15]; 3 WAT, 6 GAI/HA, evaluation 1): 0%
% CONTROL PS ([15]; 3 WAT, 6 GAI/HA, evaluation 2): 0%
% CONTROL PS ([15]; 3 WAT, 6 GAI/HA, evaluation 3): 0%
% CONTROL PS ([15]; 3 WAT, 8 GAI/HA, evaluation 1): 0%
% CONTROL PS ([15]; 3 WAT, 8 GAI/HA, evaluation 2): 0%
% CONTROL PS ([15]; 3 WAT, 8 GAI/HA, evaluation 3): 0%
% CONTROL PS ([15]; 4 WAT, 2 GAI/HA, evaluation 1): 0%
% CONTROL PS ([15]; 4 WAT, 2 GAI/HA, evaluation 2): 0%
% CONTROL PS ([15]; 4 WAT, 2 GAI/HA, evaluation 3): 0%
% CONTROL PS ([15]; 4 WAT, 3 GAI/HA, evaluation 1): 0%
% CONTROL PS ([15]; 4 WAT, 3 GAI/HA, evaluation 2): 0%
% CONTROL PS ([15]; 4 WAT, 3 GAI/HA, evaluation 3): 0%
% CONTROL PS ([15]; 4 WAT, 4 GAI/HA, evaluation 1): 0%
% CONTROL PS ([15]; 4 WAT, 4 GAI/HA, evaluation 2): 0%
% CONTROL PS ([15]; 4 WAT, 4 GAI/HA, evaluation 3): 0%
% CONTROL PS ([15]; 4 WAT, 6 GAI/HA, evaluation 1): 0%
% CONTROL PS ([15]; 4 WAT, 6 GAI/HA, evaluation 2): 0%
% CONTROL PS ([15]; 4 WAT, 6 GAI/HA, evaluation 3): 0%
% CONTROL PS ([15]; 4 WAT, 8 GAI/HA, evaluation 1): 0%
% CONTROL PS ([15]; 4 WAT, 8 GAI/HA, evaluation 2): 0%
% CONTROL PS ([15]; 4 WAT, 8 GAI/HA, evaluation 3): 0%
% CONTROL PS ([15]; 5 WAT, 2 GAI/HA, evaluation 1): 0%
% CONTROL PS ([15]; 5 WAT, 2 GAI/HA, evaluation 2): 0%
% CONTROL PS ([15]; 5 WAT, 2 GAI/HA, evaluation 3): 0%
% CONTROL PS ([15]; 5 WAT, 3 GAI/HA, evaluation 1): 0%
% CONTROL PS ([15]; 5 WAT, 3 GAI/HA, evaluation 2): 0%
% CONTROL PS ([15]; 5 WAT, 3 GAI/HA, evaluation 3): 0%
% CONTROL PS ([15]; 5 WAT, 4 GAI/HA, evaluation 1): 0%
% CONTROL PS ([15]; 5 WAT, 4 GAI/HA, evaluation 2): 0%
% CONTROL PS ([15]; 5 WAT, 4 GAI/HA, evaluation 3): 0%
% CONTROL PS ([15]; 5 WAT, 6 GAI/HA, evaluation 1): 0%
% CONTROL PS ([15]; 5 WAT, 6 GAI/HA, evaluation 2): 0%
% CONTROL PS ([15]; 5 WAT, 6 GAI/HA, evaluation 3): 0%
% CONTROL PS ([15]; 5 WAT, 8 GAI/HA, evaluation 1): 0%
% CONTROL PS ([15]; 5 WAT, 8 GAI/HA, evaluation 2): 0%
% CONTROL PS ([15]; 5 WAT, 8 GAI/HA, evaluation 3): 0%
